Assay results published in patent US5919780A, “Tricyclic inhibitors of protein farnesyltransferase” (Warner Lambert Company, priority 1997, dated 1999).
Where two headings read alike, the source gives them in different places.

Key:
[1] = target: T1, rat brain farnesyl protein transferase (Rattus norvegicus, UniProt Q02293+Q04631); experiment: Farnesyl Protein Transferase Inhibition (PFT/FPT inhibitory activity); type: biochemical
T1 construct: 40-fold purified rat brain farnesyl protein transferase; from tissue; host or cells: rat brain
Description: The protein:farnesyltransferase (PFT) or farnesyl protein transferase (FPT) inhibitory activity of compounds of Formula I was assayed in HEPES buffer (pH 7.4) containing 5 mM potassium phosphate and 20 μM ZnCl2. The solution also contained 7 mM DTT, 1.2 mM MgCl2, 0.1 mM leupeptin, 0.1 mM pepstatin, and 0.2 mM phenylmethylsulfonyl fluoride. Assays were performed in 96 well plates (Wallec) and employed solutions composed of varying concentrations of a compound of Formula I in 100% DMSO. Upon addition of both substrates, radiolabeled farnesyl pyrophosphate ([1-^3 H], specific activity 15-30 Ci/mmol, final concentration 0.12 μM) and (biotinyl)-Ahe-Tyr-Lys-Cys-Val-Ile-Met peptide (final concentration 0.2 μM), the enzyme reaction was started by addition of 40-fold purified rat brain farnesyl protein transferase. After incubation at 37° for 30 minutes, the reaction was terminated by diluting the reaction 2.5-fold with a stop buffer containing 1.5M magnesium acetate, 0.2M H3 PO4, 0.5% BSA, and strepavidin beads (Amersham) at a concentration of 1.3 mg/mL. After allowing the plate to settle for 30 minutes at room temperature, radioactivity was quantitated on a microBeta counter (Model 1450, Wallec). Compounds of Formula I show IC50 values of 0.8 to 60 μM in this assay and are thus valuable inhibitors of protein:farnesyltransferase enzyme which may be used in the medical treatment of tissue proliferative diseases, including cancer and restenosis. The assay was also carried out without 5 mM potassium phosphate.

Ras protein = experiment: Gel Shift Assay against ras protein; type: cell-based; conditions: ras-transformed cells, 18-hour incubation; read-out: Gel Shift Minimum Effective Dose
Description: Twenty-four hours after planting 2×10^6 ras-transformed cells per treatment condition, the farnesylation inhibitor is added at varying concentrations. Following an 18-hour incubation period, cells are lysed in phosphate-buffered saline containing 1% Triton X-100, 0.5% sodium deoxycholate, and 0.1% SDS, pH 7.4 in the presence of several protease inhibitors (PMSF, antipain, leupeptin, pepstatin A, and aprotinin all at 1 μg/mL). Ras protein is immunoprecipitated from the supernatants by the addition of 3 μg v-H-ras Ab-2 (Y13-259 antibody from oncogene Science). After overnight immunoprecipitation, 30 μL of a 50% protein G-Sepharose slurry (Pharmacia) is added followed by 45-minute incubation. Pellets are resuspended in 2× tris-glycine loading buffer (Novex) containing 5% B-mercaptoethanol and then denatured by 5 minutes boiling prior to electrophoresis on 14% Tris-glycine SDS gels. Using Western transfer techniques, proteins are transferred to nitrocellulose membranes followed by blocking in blocking buffer. Upon overnight incubation with primary antibody (pan-ras Ab-2 from Oncogene Science), an antimouse HRP conjugate secondary antibody (Amersham) is employed for detection of the ras protein. Blots are developed using ECL techniques (Amersham).

[2] = Hepes with 5 mM PO4^-3, read-out: Farnesyl Protein Transferase Inhibition Hepes/5 mM PO4^-3 IC50
[3] = Hepes, without 5 mM phosphate, read-out: Farnesyl Protein Transferase Inhibition Hepes IC50

## Clc1ccc2c(c1)N=C(NCc1cccnc1)c1ccccc1N2 [Example 1, (8-Chloro-5H-dibenzo[b,e][1,4]diazepin-11-yl)pyridin-3-ylmethyl-amine]
[1]; [2]
  IC50: 5 µM
[1]; [3]
  IC50: 3.7 µM
Ras protein
  minimal effective concentration: 50 µM

## Clc1ccc2c(c1)N=C(NCCc1cnc[nH]1)c1ccccc1N2 [Example 2, (8-Chloro-5H-dibenzo[b,e][1,4]diazepin-11-yl)-[2-(3H-imidazol-4-yl)-ethyl]-amine]
[1]; [2]
  IC50: 3 µM
[1]; [3]
  IC50: 2.4 µM
Ras protein
  minimal effective concentration: 25 µM

## Clc1ccc2c(c1)N=C(NCCc1cccnc1)c1ccccc1N2 [Example 3, (8-Chloro-5H-dibenzo[b,e][1,4]diazepin-11-yl)-(2-pyridin-3-yl-ethyl)-amine]
[1]; [2]
  IC50: 57 µM
[1]; [3]
  IC50: 36 µM
Ras protein
  minimal effective concentration: > 50 µM

## Clc1ccc2c(c1)N=C(NCCn1ccnc1)c1ccccc1N2 [Example 4, (8-Chloro-5H-dibenzo[b,e][1,4]diazepin-11-yl)-(2-imidazol-1-yl-ethyl)-amine]
[1]; [2]
  IC50: 2.5 µM
[1]; [3]
  IC50: 3 µM
Ras protein
  minimal effective concentration: 5 µM

## Clc1ccc2c(c1)N=C(NCCCn1ccnc1)c1ccccc1N2 [Example 5, (8-Chloro-5H-dibenzo[b,e][1,4]diazepin-11-yl)-(3-imidazol-1-yl-propyl)-amine]
[1]; [2]
  IC50: 4.5 µM
[1]; [3]
  IC50: 6.8 µM
Ras protein
  minimal effective concentration: 2.5 µM

## Clc1ccc2c(c1)Nc1ccccc1C(NCc1cccnc1)=N2 [Example 6, (7-Chloro-5H-dibenzo[b,e][1,4]diazepin-11-yl)pyridin-3-ylmethyl-amine]
[1]; [2]
  IC50: 5.6 µM
[1]; [3]
  IC50: 5.5 µM
Ras protein
  minimal effective concentration: 50 µM

## c1cncc(CNC2=Nc3ccccc3Nc3ccccc32)c1 [Example 7, (5H-Dibenzo[b,e][1,4]diazepin-11-yl)-pyridin-3-ylmethyl-amine]
[1]; [2]
  IC50: 12 µM
[1]; [3]
  IC50: 23 µM
Ras protein
  minimal effective concentration: 50 µM

## Cc1ccc2c(c1)N=C(NCc1cccnc1)c1ccccc1N2 [Example 8, (8-Methyl-5H-dibenzo[b,e][1,4]diazepin-11-yl)-pyridin-3-ylmethyl-amine]
[1]; [2]
  IC50: 31 µM
[1]; [3]
  IC50: 24 µM

## COc1ccc2c(c1)N=C(NCc1cccnc1)c1ccccc1N2 [Example 9, (8-Methoxy-5H-dibenzo[b,e][1,4]diazepin-11-yl)-pyridin-3-ylmethyl-amine]
[1]; [2]
  IC50: 16 µM
[1]; [3]
  IC50: 27 µM
Ras protein
  minimal effective concentration: 50 µM

## Brc1ccc2c(c1)N=C(NCc1cccnc1)c1ccccc1N2 [Example 10, (8-Bromo-5H-dibenzo[b,e][1,4]diazepin-11-yl)-pyridin-3-ylmethyl-amine]
[1]; [2]
  IC50: 36 µM
[1]; [3]
  IC50: 6 µM

## Clc1cc2c(cc1Cl)Nc1ccccc1C(NCc1cccnc1)=N2 [Example 11, (7,8-Dichloro-5H-dibenzo[b,e][1,4]diazepin-11-yl)-pyridin-3-ylmethyl-amine]
[1]; [2]
  IC50: 1.6 µM
[1]; [3]
  IC50: 0.8 µM
Ras protein
  minimal effective concentration: 50 µM

## c1ccc(COc2ccc3c(c2)N=C(NCc2cccnc2)c2ccccc2N3)cc1 [Example 12, (8-Benzyloxy-5H-dibenzo[b,e][1,4]diazepin-11-yl)-pyridin-3-ylmethyl-amine]
[1]; [2]
  IC50: 37 µM
[1]; [3]
  IC50: > 50 µM
Ras protein
  minimal effective concentration: > 50 µM

## COc1cc2c(cc1OC)C(NCc1cccnc1)=Nc1cc(Cl)c(Cl)cc1N2 [Example 13, (7,8-Dichloro-2,3-dimethoxy-5H-dibenzo[b,e][1,4]diazepin-11-yl)-pyridin-3-ylmethyl-amine]
[1]; [2]
  IC50: 50 µM
[1]; [3]
  IC50: 30 µM

## c1cncc(CNC2=Nc3ccccc3Nc3ncccc32)c1 [Example 14, (11H-Benzo[b]pyrido[2,3-e][1,4]diazepin-5-yl)-pyridin-3-ylmethyl-amine]
[1]; [2]
  IC50: 17 µM
[1]; [3]
  IC50: 14 µM
Ras protein
  minimal effective concentration: 50 µM

## CN1c2ccc(Cl)cc2N=C(NCc2cccnc2)c2ccccc21 [Example 15, (8-Chloro-5-methyl-5H-dibenzo[b,e][1,4]diazepin-11-yl)-pyridin-3-ylmethyl-amine]
[1]; [2]
  IC50: 17 µM
[1]; [3]
  IC50: 12.2 µM
Ras protein
  minimal effective concentration: > 25 µM

## Clc1ccc2c(c1)N=C(NCc1cccnc1)c1ccccc1S2 [Example 16, (8-Chloro-dibenzo[b,f][1,4]thiazepin-11-yl)pyridin-3-ylmethyl-amine]
[1]; [2]
  IC50: 22 µM
[1]; [3]
  IC50: 9.8 µM

## O=S1(=O)c2ccc(Cl)cc2N=C(NCc2cccnc2)c2ccccc21 [Example 17, (8-Chloro-5,5-dioxo-5H-5λ^6-dibenzo[b,f][1,4]thiazepin-11-yl)-pyridin-3-ylmethyl-amine]
[1]; [2]
  IC50: 6.1 µM
[1]; [3]
  IC50: 5 µM

## Clc1ccc2c(c1)N=C(NCc1cccnc1)c1ccccc1O2 [Example 18, (8-Chloro-dibenzo[b,f][1,4]oxazepin-11-yl)-pyridin-3-ylmethyl-amine]
[1]; [2]
  IC50: 16.5 µM
[1]; [3]
  IC50: 8.7 µM
